Data: patent US4675403A, “3-Aminoalkyl derivatives of 5,5-disubstituted hydantoins with psychotropic activity” (American Home Products Corporation, priority 1985, dated 1987)
Structures can show the parent of a compound that is named as a salt. Where two headings read alike, the source gives them in different places.

Key:
[1] = biological target: limbic D-2 dopamine receptor (Rattus norvegicus, UniProt P61169); assay: inhibition of limbic D-2 dopamine receptor binding (3H-spiroperidol); parameters: species or system rats; details: for inhibition at 10 µM: read-out: Limbic D-2 Binding, inhibition at 10 μM
Sequence of limbic D-2 dopamine receptor (P61169 whole entry): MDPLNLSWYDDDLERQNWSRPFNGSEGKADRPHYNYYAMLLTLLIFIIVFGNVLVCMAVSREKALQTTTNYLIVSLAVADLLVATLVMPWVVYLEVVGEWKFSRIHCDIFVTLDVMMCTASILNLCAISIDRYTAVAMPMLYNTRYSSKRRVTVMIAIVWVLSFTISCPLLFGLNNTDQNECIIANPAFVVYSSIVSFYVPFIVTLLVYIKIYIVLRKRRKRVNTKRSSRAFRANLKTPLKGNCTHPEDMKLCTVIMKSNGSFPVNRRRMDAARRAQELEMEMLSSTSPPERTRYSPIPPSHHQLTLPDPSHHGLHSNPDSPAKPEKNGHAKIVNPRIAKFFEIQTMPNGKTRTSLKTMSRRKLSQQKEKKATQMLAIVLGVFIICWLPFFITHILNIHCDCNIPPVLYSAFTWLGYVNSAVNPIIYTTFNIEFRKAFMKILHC
Method: The test is carried out as follows:

[2] = system: conditioned avoidance (shelf-jump response); assay: conditioned avoidance (shelf-jump response) test; details: Rattus norvegicus, ip, read-out: AB50
Method: This test is carried out as follows:
Male CD rats (Charles River) maintained at approximately 400-450 gm body weight are used. […] A moveable wall, controlled by a motor, determines whether the rat has access to the shelf at any time during the experiment. The experimental chamber also contains a house light and sonalert. A steel grid floor in the main chamber is wired for presentation of electric shock. Each trial consists of a fifteen-second warning tone (conditioned stimulus), continuing for an additional fifteen seconds accompanied by electric shock, (unconditioned stimulus). A response (jumping onto the exposed shelf of the upper chamber) occurring during the initial fifteen-second warning tone is considered an avoidance response, while a response occurring during shock delivery is considered an escape response. […]
The following experimental parameters are recorded by computer: (1) the number of avoidance responses, (2) the number of escape responses, and (3) the number of trials in which no response occurred.
Response counts are summed over all subjects at a given dose. […] This number is expressed as a percentage of the total trials. Control performance is arbitrarily assigned a value of 100% for avoidance and the dose calculated to produce a 50% block in avoidance responding (AB50) is obtained from a dose-effect regression line fitted by the method of least squares.

[3] = rat limbic tissue, 0.3 nM 3H-spiroperidol

Row | Compound | inhibition at 1 µM [1, 3] | inhibition at 10 µM [1] | ED50 [2] | also measured
1 | O=C1NC2(CCCC2)C(=O)N1CCCCN1CCN(c2ncccn2)CC1 [Example 7, 5,5-Tetramethylene-3-[4-[4-(2-pyrimidinyl)-4-piperazinyl]butyl]-2,4-imidazolidinedione, dihydrochloride] | – | – | – | inhibition at 10 µM ([1]; 10 μM, rat limbic tissue, 0.3 nM 3H-spiroperidol): 51%
2 | CC1(C)NC(=O)N(CCCCN2CCN(c3ncccn3)CC2)C1=O [Example 5, 5,5-Dimethyl-3-[4-[4-(2-pyrimidinyl)-4-piperazinyl]butyl]-2,4-imidazolidinedione, hydrochloride] | 5% | – | – | –
3 | O=C1NC2(CCCC2)C(=O)N1CCCCN1CCC(O)(c2ccc(Cl)cc2)CC1 [Example 8, dihydrochloride] | – | 40% | – | –
4 | O=C1NC2(CC3CCC2C3)C(=O)N1CCCCN1CCN(c2ncccn2)CC1 (centres unmarked) [Example 2, 1-[4-[4-(2-Pyrimidinyl)-1-piperazinyl]butyl]spiro[bicyclo[2.2.1]heptane-2,4'-imidazolidine]-2',5'-dione, dihydrochloride] | – | – | 33.3 mg/kg | Ki ([1]; rat limbic tissue, 0.3 nM 3H-spiroperidol, Table 1): 2000 nM
5 | O=C1NC2(CCCCC2)C(=O)N1CCCCN1CCN(c2ncccn2)CC1 [Example 4, 5,5-Pentamethylene-3-[4-[4-(2-pyrimidinyl)-4-piperazinyl]butyl]-2,4-imidazolidinedione, dihydrochloride] | 10% | – | – | –
6 | Cl.Cl.O=C1CNC(=O)N1CCCCN1CCN(c2ncccn2)CC1 [Example 3, 3-[4-[4-(2-Pyrimidinyl)-1-piperazinyl]butyl]-2,4-imidazolidinedione, dihydrochloride] | – | 24% | 45.8 mg/kg | –
